Laboratory results published in patent US12678454B2, “Bicarbonate as a potentiator for antimicrobial agents” (priority 2017, dated 2026).
Marks after values point to notes of the source that are not given here.

Columns and labels:
E. coli (K-12 BW25113) = type: cell-based, Escherichia coli; set-up: MIC, E. coli, MHB− / MIC, E. coli, MHB+: unit not given here; settings: for MIC, E. coli, MHB−: MHB without sodium bicarbonate
Protocol: (§1) In the following experiments, bacterial cells were cultured in 96-well microtiter plates in cation-adjusted Mueller-Hinton Broth (MHB) for 18 h at 37° C. The main strains used in this study were E. coli (K-12 BW25113) (placed in stationary incubator) and S. aureus (Strain Newman) (incubated at 250 r.p.m). Knockout strains (ΔtolcC and ΔychM) were used from the Keio knockout collection (Baba, T. et al. Construction of Escherichia coli K-12 in-frame, single-gene knockout mutants: the Keio collection. Mol Syst Biol 2, 2006 0008, doi:10.1038/msb4100050 (2006)). For minimum concentration for inhibition (MIC) determination and checkerboard analyses, Clinical & Laboratory Standards Institute (CLSI) protocol was used. […] DiSC3 loading of S. aureus cells was performed as previously described (Farha, M. A., Verschoor, C. P., Bowdish, D. & Brown, E. D. Collapsing the proton motive force to identify synergistic combinations against Staphylococcus aureus. Chemistry & biology 20, 1168-1178, doi:10.1016/j.chembiol.2013.07.006 (2013)). CCCP concentration of 20 μM was used. pH adjustments were made by addition of HCl or NaOH. INT assay and ATP bioluminescence assays were performed as previously described (Farha, M. A., Verschoor, C. P., Bowdish, D. & Brown, E. D. Collapsing the proton motive force to identify synergistic combinations against Staphylococcus aureus. Chemistry & biology 20, 1168-1178, doi:10.1016/j.chembiol.2013.07.006 (2013)). For chemical-genomic studies, the Keio library was grown overnight in cation-adjusted MHB broth, in 384-well plates. From these, treatment plates (25 mM sodium bicarbonate, or a sterile water control) were inoculated and grown for 15 hours at 37° C., in a stationary incubator. Data was normalized according to Mangat et al (Mangat, C. S., Bharat, A., Gehrke, S. S. & Brown, E. D. Rank ordering plate data facilitates data visualization and normalization in high-throughput screening. J Biomol Screen 19, 1314-1320, doi:10.1177/1087057114534298 (2014)), with gene products and GO terms mined from EcoCyc. The GFP promoter library (Keseler, I. M. et al. EcoCyc: fusing model organism databases with systems biology. Nucleic Acids Res 41, D605-612, doi:10.1093/nar/gks1027 (2013)) was grown for 18 hours at ambient temperature with the same inoculation strategy as with the Keio collection. The analysis pipeline of Zaslaver et al (Zaslaver, A. et al. A comprehensive library of fluorescent transcriptional reporters for Escherichia coli. Nat Methods 3, 623-628, doi:10.1038/nmeth895 (2006)) was used to generate maps of promoter activity, from which lists of promoters with increased or decreased activity were compiled.

[1] = test system: S. aureus (Strain Newman); assay: MIC determination (CLSI protocol) in MHB; type: cell-based, Staphylococcus aureus; settings: for MIC, S. aureus, MHB−: MHB without sodium bicarbonate
Protocol: as §1

Row | Compound | Fold, E. coli (E. coli (K-12 BW25113)) [fold] | MIC, E. coli, MHB+ (E. coli (K-12 BW25113)) | Fold, S. aureus [1] [fold] | MIC, S. aureus, MHB− [1] [µg/mL] | effect of physiological sodium bicarbonate on inhibitory activity (E. coli (K-12 BW25113); E. coli, 25 mM sodium bicarbonate) | MIC in MHB ([1]; S. aureus (strain Newman), MHB) | MIC in MHB + 25 mM bicarbonate ([1]; S. aureus (strain Newman), MHB + 25 mM sodium bicarbonate) | MIC, E. coli, MHB− (E. coli (K-12 BW25113)) | effect of CCCP pre-treatment on potentiation by sodium bicarbonate (E. coli (K-12 BW25113))
1 | O=CN(O)CCCP(=O)(O)O [Fosmidomycin] | −2 | 32 | 1 | > 64 | – | – | – | – | –
2 | CCn1cc(C(=O)O)c(=O)c2cc(F)c(N3CCNCC3)nc21 [Enoxacin] | 2 | 0.125 | −2 | 1 | – | – | – | – | –
3 | CN[C@@H]1[C@@H](O[C@H]2O[C@H](CO)[C@@H](N)[C@H](O)[C@H]2O)OC2C[C@@H](N)[C@@H](O[C@H]3[C@H](O)[C@@H](O)[C@H](N)C[C@@H]3N)OC2[C@@H]1O (stereo partly drawn) [Apramycin] | 4 | 8 | 0.5 | 16 | – | – | – | – | –
4 | Lysozyme | – | – | – | – | enhanced the inhibitory activity | >256 ** μg/mL | >256 ** μg/mL | – | –
5 | O=C(N[C@H](CO)[C@H](O)c1ccc([N+](=O)[O-])cc1)C(Cl)Cl [Chloramphenicol] | 1 | 8 | 1 | 8 | – | – | – | – | –
6 | CCN1CCN(C(=O)N[C@@H](C(=O)N[C@@H]2C(=O)N3C(C(=O)O)=C(CSc4nnnn4C)CS[C@H]23)c2ccc(O)cc2)C(=O)C1=O [Cefoperazone] | 1 | 0.125 | −16 | 0.25 | – | – | – | – | –
7 | CO[C@@H]1[C@@H](OC(N)=O)[C@@H](O)[C@H](Oc2ccc3c(O)c(NC(=O)c4ccc(O)c(CC=C(C)C)c4)c(=O)oc3c2C)OC1(C)C [Novobiocin] | −8 | >256 | −16 | 0.031 | – | – | – | – | –
8 | Cc1onc(-c2ccccc2)c1C(=O)N[C@@H]1C(=O)N2[C@@H]1SC(C)(C)[C@@H]2C(=O)O [Oxacillin] | −2 | >256 | −16 | 0.0625 | – | – | – | – | –
9 | NC[C@H]1O[C@H](O[C@H]2[C@H](O)[C@@H](O[C@H]3O[C@H](CO)[C@@H](O)[C@H](N)[C@H]3O)[C@H](N)C[C@@H]2N)[C@H](O)[C@@H](O)[C@@H]1O [Kanamycin] | 4 | 1 | 2 | 8 | – | – | – | – | –
10 | CC1(C)S[C@@H]2[C@H](NC(=O)[C@H](N)c3ccccc3)C(=O)N2[C@H]1C(=O)O [Ampicillin] | −2 | 32 | −8 | 1 | – | – | – | – | –
11 | CO/N=C(\C(=O)N[C@@H]1C(=O)N2C(C(=O)O)=C(CSc3nc(=O)c(=O)[nH]n3C)CS[C@H]12)c1csc(N)n1 [Ceftriaxone] | 1 | 0.625 | −4 | 4 | – | – | – | – | –
12 | CCn1cc(C(=O)O)c(=O)c2cc(F)c(N3CCNCC3)cc21 [Norfloxacin] | 2 | 0.0625 | −2 | 0.5 | – | – | – | – | –
13 | NC[C@@H]1O[C@H](O[C@H]2[C@@H](O)[C@H](O[C@@H]3[C@@H](O)[C@H](N)C[C@H](N)[C@H]3O[C@H]3O[C@H](CO)[C@@H](O)[C@H](O)[C@H]3N)O[C@@H]2CO)[C@H](N)[C@@H](O)[C@@H]1O [Paromomycin] | 2 | 1 | 1 | 2 | – | – | – | – | –
14 | CCn1cc(C(=O)O)c(=O)c2ccc(C)nc21 [Nalidixic acid] | −4 | 8 | −4 | > 8 | – | – | – | – | –
15 | C[C@H]1COc2c(N3CCN(C)CC3)c(F)cc3c(=O)c(C(=O)O)cn1c23 [Levofloxacin] | 1 | 0.0313 | −2 | 0.5 | – | – | – | – | –
16 | CO[C@H]1/C=C/O[C@@]2(C)Oc3c(C)c(O)c4c(O)c(c(/C=N/N5CCN(C)CC5)c(O)c4c3C2=O)NC(=O)/C(C)=C\C=C\[C@H](C)[C@H](O)[C@@H](C)[C@@H](O)[C@@H](C)[C@H](OC(C)=O)[C@@H]1C [Rifampicin] | −2 | 64 | −4 | 0.0078 | – | – | – | – | –
17 | C[C@H]1c2cccc(O)c2C(=O)C2=C(O)[C@]3(O)C(=O)C(C(N)=O)=C(O)[C@@H](N(C)C)[C@@H]3[C@@H](O)[C@@H]21 [Doxycycline] | −4 | 4 | −16 | 0.125 | – | – | – | – | –
18 | CCN1CCN(C(=O)N[C@@H](C(=O)N[C@@H]2C(=O)N3[C@@H]2SC(C)(C)[C@@H]3C(=O)O)c2ccccc2)C(=O)C1=O [Piperacillin] | 2 | 1 | −4 | 0.25 | – | – | – | – | –
19 | CC[C@H]1OC(=O)[C@H](C)[C@@H](O[C@H]2C[C@@](C)(OC)[C@@H](O)[C@H](C)O2)[C@H](C)[C@@H](O[C@@H]2O[C@H](C)C[C@H](N(C)C)[C@H]2O)[C@](C)(O)C[C@@H](C)C(=O)[C@H](C)[C@@H](O)[C@]1(C)O [Erythromycin] | – | 32 | – | 32 | – | – | – | – | –
20 | N[C@@H]1CCCCN(c2c(F)cc3c(=O)c(C(=O)O)cn(C4CC4)c3c2Cl)C1 [Besifloxacin] | 8 | 0.0313 | −2 | 0.125 | – | – | – | – | –
21 | COc1c(N2C[C@@H]3CCCN[C@@H]3C2)c(F)cc2c(=O)c(C(=O)O)cn(C3CC3)c12 [Moxifloxacin] | – | 0.0156 | – | 0.125 | – | – | – | – | –
22 | Cc1onc(-c2ccccc2Cl)c1C(=O)N[C@@H]1C(=O)N2[C@@H]1SC(C)(C)[C@@H]2C(=O)O [Cloxacillin] | 1 | 256 | −16 | 0.031 | – | – | – | – | –
23 | Polymyxin B | −2 | 0.5 | 8 | – | – | – | – | 0.25 | –
24 | CC1(C)S[C@@H]2[C@H](NC(=O)[C@H](N)c3ccc(O)cc3)C(=O)N2[C@H]1C(=O)O [Amoxicillin] | −2 | 16 | −4 | 0.25 | – | – | – | – | –
25 | C[C@@H]1O[C@@H]1P(=O)(O)O [Fosfomycin] | −4 | 16 | −4 | 16 | – | – | – | – | –
26 | Gentamicin | 8 | 0.25 | 2 | – | – | – | – | 2 | abolishes the potentiation
27 | CC(=O)NC[C@H]1CN(c2ccc(N3CCOCC3)c(F)c2)C(=O)O1 [Linezolid] | 1 | 256 | 1 | 0.625 | – | – | – | – | –
28 | Neomycin | 4 | 0.25 | 4 | – | – | – | – | 1 | –
